The structures appear in SMILES notation.

For one assay, the target named is T1, Recombinant human GSK3β (Homo sapiens, UniProt P49841).
T1 construct: His-tag; made in house; host or cells: Sf9 insect cells / baculovirus
T1 sequence (P49841 whole entry): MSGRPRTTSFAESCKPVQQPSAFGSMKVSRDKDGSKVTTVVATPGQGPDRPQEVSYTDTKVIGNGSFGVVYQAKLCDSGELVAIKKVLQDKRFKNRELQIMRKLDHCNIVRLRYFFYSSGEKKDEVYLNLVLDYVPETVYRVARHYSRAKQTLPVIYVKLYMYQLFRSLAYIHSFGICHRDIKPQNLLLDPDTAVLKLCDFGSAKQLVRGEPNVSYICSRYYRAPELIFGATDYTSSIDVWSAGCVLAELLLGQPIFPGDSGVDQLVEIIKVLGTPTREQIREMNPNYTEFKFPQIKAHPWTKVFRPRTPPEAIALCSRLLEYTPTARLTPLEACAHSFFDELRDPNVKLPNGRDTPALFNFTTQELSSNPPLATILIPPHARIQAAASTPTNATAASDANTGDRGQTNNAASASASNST
Nature of the assay: GSK-3β (Glycogen Synthase Kinase) cell free enzyme assay. The conditions noted are these: 1 μM; Examples 201-221; read-out: Percent inhibition at 1 μM. Type of assay: biochemical. The essentials: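 This cell-free kinase assay measured [33P] transfer from [33P]ATP gamma phosphate into the biotinylated peptide bio-LC-S-R-H-S-S-P-H-Q-pS-E-D-E-E-E-OH. After 60 min at RT, reactions were stopped with 0.66 volume of PBS lacking Ca or Mg containing 12.5 mM EDTA, 0.25% Triton-X 100, 125 uM ATP and 6.2 mg/ml streptavidin SPA beads. Bead-bound radioactivity was counted as CPM on a Trilux scintillation counter.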
Consider `COC(=O)N1CCC[C@@H]1CNc1nc(-c2ccncc2)cc(=O)n1C` [Example 220, Methyl (2R)-2-{[(1-methyl-6-oxo-4-pyridin-4-yl-16-dihydropyrimidin-2-yl)amino]methyl}pyrrolidine-1-carboxylate], for which the inhibition at 1 µM was found to be 91%.
On the same count and under the same terms, the same measure for `COC(=O)N1CCC(CNc2nc(-c3ccncc3)cc(=O)n2C)C1` (centres unmarked) [Example 221, Methyl 3-{[(1-methyl-6-oxo-4-pyridin-4-yl-16-dihydropyrimidin-2-yl)amino]methyl}pyrrolidine-1-carboxylate]: 71%.

Still in this assay, the particulars now being: 1 μM; Examples 236-262; read-out: Percent inhibition at 1 μM.
In the case of `Cn1c(NC2CCN(Cc3ccccc3)C2)nc(-c2ccncc2)cc1=O` (centres unmarked) [Example 236, 2-[(1-Benzylpyrrolidin-3-yl)amino]-3-methyl-6-pyridin-4-ylpyrimidin-4(3H)-one], the inhibition at 1 µM is 63%.
Turning to `Cn1c(NC2CCCN(Cc3ccccc3)CC2)nc(-c2ccncc2)cc1=O` (centres unmarked) [Example 237, 2-[(1-Benzylazepan-4-yl)amino]-3-methyl-6-pyridin-4-ylpyrimidin-4(3H)-one], the inhibition at 1 µM was 84%.
Turning to `CN1[C@@H]2CC[C@H]1CN(c1nc(-c3ccncc3)cc(=O)n1C)C2` [Example 238, 3-Methyl-2-[(1R,5S)-8-methyl-38-diazabicyclo[3.2.1]oct-3-yl]-6-pyridin-4-ylpyrimidin-4(3H)-one], the inhibition at 1 µM came to 47%.
Same read-out and setting: next, `CN1C[C@H]2CC[C@@H](C1)N2c1nc(-c2ccncc2)cc(=O)n1C` [Example 239, 3-Methyl-2-[(1R,5S)-3-methyl-38-diazabicyclo[3.2.1]oct-8-yl]-6-pyridin-4-ylpyrimidin-4(3H)-one]: 57%; `CN1CCC(Nc2nc(-c3ccncc3)cc(=O)n2C)C1` (centres unmarked) [Example 240, 3-Methyl-2-[(1-methylpyrrolidin-3-yl)amino]-6-pyridin-4-ylpyrimidin-4(3H)-one]: 49%; `CN1CCCC(Nc2nc(-c3ccncc3)cc(=O)n2C)CC1` (centres unmarked) [Example 241, 3-Methyl-2-[(1-methylazepan-4-yl)amino]-6-pyridin-4-ylpyrimidin-4(3H)-one]: 72%.
Still for that read-out and setting: next, `CN1C[C@H](Nc2nc(-c3ccncc3)cc(=O)n2C)[C@@H](F)C1` [Example 242, 2-{[(3S,4S)-4-Fluoro-1-methylpyrrolidin-3-yl]amino}-3-methyl-6-pyridin-4-ylpyrimidin-4(3H)-one]: 43%; `CN1CCCC(N(C)c2nc(-c3ccncc3)cc(=O)n2C)CC1` (centres unmarked) [Example 243, 3-Methyl-2-[methyl(1-methylazepan-4-yl)amino]-6-pyridin-4-ylpyrimidin-4(3H)-one]: 60%.
The same measure, in the same setting: next, `CCN(c1nc(-c2ccncc2)cc(=O)n1C)C1CCN(C)C1` (centres unmarked) [Example 244, 2-[ethyl(1-Methylpyrrolidin-3-yl)amino]-3-methyl-6-pyridin-4-ylpyrimidin-4(3H)-one]: 60%; `CN1CCC(N(C)c2nc(-c3ccncc3)cc(=O)n2C)C1` (centres unmarked) [Example 245, 3-Methyl-2-[methyl(1-methylpyrrolidin-3-yl)amino]-6-pyridin-4-ylpyrimidin-4(3H)-one]: 52%.
On to `CN1C[C@H](F)[C@H](Nc2nc(-c3ccncc3)cc(=O)n2C)C1` [Example 246, 2-{[(3R,4S)-4-Fluoro-1-methylpyrrolidin-3-yl]amino}-3-methyl-6-pyridin-4-ylpyrimidin-4(3H)-one], for which the inhibition at 1 µM came to 67%.
Still for that read-out and setting: next, `CCN(c1nc(-c2ccncc2)cc(=O)n1C)C1CCCN(C)CC1` (centres unmarked) [Example 247, 2-[Ethyl(1-methylazepan-4-yl)amino]-3-methyl-6-pyridin-4-ylpyrimidin-4(3H)-one]: 78%.
On to `CCN(c1nc(-c2ccncc2)cc(=O)n1C)C1CCN(C)CC1` [Example 248, 2-[Ethyl(1-methylpiperidin-4-yl)amino]-3-methyl-6-pyridin-4-ylpyrimidin-4(3H)-one], for which the inhibition at 1 µM worked out at 39%.
Same read-out and setting: next, `CN1CC(CNc2nc(-c3ccncc3)cc(=O)n2C)C1` [Example 249, 3-Methyl-2-{[(1-methylazetidin-3-yl)methyl]amino}-6-pyridin-4-ylpyrimidin-4(3H)-one]: 33%.
Same read-out and setting: the same measure for `Cn1c(N2CC[C@@H]3CN(Cc4ccccc4)C[C@@H]32)nc(-c2ccncc2)cc1=O` [Example 251, 2-[(3a,R6,aR)-5-Benzylhexahydropyrro-lo[34-b]pyrrol-1(2H)-yl]-3-methyl-6-pyridin-4-ylpyrimidin-4(3H)-one]: 47%; for `Cn1c(NC2CCCCN(Cc3ccccc3)C2)nc(-c2ccncc2)cc1=O` (centres unmarked) [Example 252, 2-[(1-Benzylazepan-3-yl)amino]-3-methyl-6-pyridin-4-ylpyrimidin-4(3H)-one]: 74%.
On the same count and under the same terms, next, `Cn1c(N[C@@H]2CN(Cc3ccccc3)C[C@@H]2F)nc(-c2ccncc2)cc1=O` [Example 253, 2-{[(3R,4S)-1-Benzyl-4-fluoropyrrolidin-3-yl]amino}-3-methyl-6-pyridin-4-ylpyrimidin-4(3H)-one]: 91%; `CN(c1nc(-c2ccncc2)cc(=O)n1C)[C@H]1CC[C@H]2N(Cc3ccccc3)CC[C@@]2(C)C1` [Example 254, 2-{[(3a,S5,S7,aR)-1-Benzyl-3a-methyloctahydro-1H-indol-5-yl](methyl)amino}-3-methyl-6-pyridin-4-ylpyrimidin-4(3H)-one]: 47%.
As to `CN(c1nc(-c2ccncc2)cc(=O)n1C)C1CCCN(Cc2ccccc2)CC1` (centres unmarked) [Example 255, 2-[(1-Benzylazepan-4-yl)(methyl)amino]-3-methyl-6-pyridin-4-ylpyrimidin-4(3H)-one], the inhibition at 1 µM came to 76%.
Consider `CN(c1nc(-c2ccncc2)cc(=O)n1C)C1CCN(Cc2ccccc2)C1` (centres unmarked) [Example 256, 2-[(1-Benzylpyrrolidin-3-yl)(methyl)amino]-3-methyl-6-pyridin-4-ylpyrimidin-4(3H)-one], for which the inhibition at 1 µM turned out to be 83%.

The same assay, now with this note: cell free enzyme assay; Examples 222-234.
Consider `CCOC(=O)N1CCCC(N(C)c2nc(-c3ccncn3)cc(=O)n2C)C1` (centres unmarked) [Example 222, Ethyl 3-[methyl(1-methyl-6-oxo-1,6-dihydro-4,4′-bipyrimidin-2-yl)amino]piperidine-1-carboxylate], for which the IC50 worked out at 1.14 nM.
On the same count and under the same terms, next, `COC(=O)N1CCCC(N(C)c2nc(-c3ccncn3)cc(=O)n2C)C1` (centres unmarked) [Example 223, Methyl 3-[methyl(1-methyl-6-oxo-1,6-dihydro-4,4′-bipyrimidin-2-yl)amino]piperidine-1-carboxylate]: 1.04 nM; `CCN(C[C@@H]1CCCN1C(=O)OC)c1nc(-c2ccncn2)cc(=O)n1C` [Example 224, Methyl (2S)-2-{[ethyl(1-methyl-6-oxo-1,6-dihydro-4,4′-bipyrimidin-2-yl)amino]methyl}pyrrolidine-1-carboxylate]: 1.11 nM; `CCOC(=O)N1CCC[C@H]1CN(CC)c1nc(-c2ccncn2)cc(=O)n1C` [Example 225, Ethyl (2S)-2-{[ethyl(1-methyl-6-oxo-1,6-dihydro-4,4′-bipyrimidin-2-yl)amino]methyl}pyrrolidine-1-carboxylate]: 0.755 nM.
The same measure, in the same setting: the same measure for `CCN(C[C@H]1CCCN1C(=O)OC)c1nc(-c2ccncn2)cc(=O)n1C` [Example 226, Methyl (2R)-2-{[ethyl(1-methyl-6-oxo-1,6-dihydro-4,4′-bipyrimidin-2-yl)amino]methyl}pyrrolidine-1-carboxylate]: 1 nM; for `CCOC(=O)N1CCC[C@@H]1CN(CC)c1nc(-c2ccncn2)cc(=O)n1C` [Example 227, Ethyl (2R)-2-{[ethyl(1-methyl-6-oxo-1,6-dihydro-4,4′-bipyrimidin-2-yl)amino]methyl}pyrrolidine-1-carboxylate]: 0.825 nM; for `COC(=O)N1CCC[C@@H](Nc2nc(-c3ccncn3)cc(=O)n2C)C1` [Example 228, Methyl (3R)-3-[(1-methyl-6-oxo-1,6-dihydro-4,4′-bipyrimidin-2-yl)amino]piperidine-1-carboxylate]: 0.994 nM.
On the same count and under the same terms, the same measure for `CCOC(=O)N1CCC[C@@H](Nc2nc(-c3ccncn3)cc(=O)n2C)C1` [Example 229, Ethyl (3R)-3-[(1-methyl-6-oxo-1,6-dihydro-4,4′-bipyrimidin-2-yl)amino]piperidine-1-carboxylate]: 1.99 nM; for `CCOC(=O)N1CCC[C@@H](N(C)c2nc(-c3ccncn3)cc(=O)n2C)C1` [Example 230, Ethyl (3R)-3-[methyl(1-methyl-6-oxo-1,6-dihydro-4,4′-bipyrimidin-2-yl)amino]piperidine-1-carboxylate]: 0.95 nM; for `CCOC(=O)N1CCC[C@@H](N(C)c2nc(-c3ccncc3)cc(=O)n2C)C1` [Example 231, Ethyl (3R)-3-[methyl(1-methyl-6-oxo-4-pyridin-4-yl-1,6-dihydropyrimidin-2-yl)amino]piperidine-1-carboxylate]: 1.15 nM.
Regarding `COC(=O)N1CCC[C@@H](Nc2nc(-c3ccncc3)cc(=O)n2C)C1` [Example 232, Methyl (3R)-3-[(1-methyl-6-oxo-4-pyridin-4-yl-1,6-dihydropyrimidin-2-yl)amino]piperidine-1-carboxylate], the IC50 stood at 0.854 nM.
In the case of `Cn1c(N[C@@H]2CCCN(C(=O)OCc3ccncc3)C2)nc(-c2ccncn2)cc1=O` [Example 233, Pyridin-4-ylmethyl (3R)-3-[(1-methyl-6-oxo-1,6-dihydro-4,4′-bipyrimidin-2-yl)amino]piperidine-1-carboxylate], the IC50 amounted to 5 nM.
Still for that read-out and setting: the same measure for `CN(c1nc(-c2ccncn2)cc(=O)n1C)[C@@H]1CCCN(C(=O)C2CC2)C1` [Example 234, 2-{[(3R)-1-(Cyclopropylcarbonyl)piperi-din-3-yl](methyl)amino}-1-methyl-4,4′-bipyrimidin-6(1H)-one]: 1.68 nM.

For orientation: inhibition means the drop in the measured response relative to a control, in per cent. By IC50 is commonly meant the concentration that inhibits the measured activity by half.
